From patent US9359589B2, “Use of at least one chelating agent introduced into the culture medium of magnetotactic bacteria in order to stimulate the growth thereof” (UNIVERSITE PIERRE ET MARIE CURIE (PARIS 6), priority 2011, dated 2016)

Tests used:
Format in all cases: cell-based
[1] = test system: Magnetotactic bacteria of the Magnetospirillum magneticum species, strain AMB-1; assay: Growth of magnetotactic bacteria after 7 days of culture in 1 liter of medium with chelating agent (absorption at 565 nm); settings: for absorption measured at 565 nm of bacterial suspension compared with bacteria cultured in the absence of chelating agent: 1 liter
Method: (§1) Magnetotactic bacteria of the Magnetospirillum magneticum species, strain AMB-1, available from ATCC under the reference ATCC No. 700274, were used.
The cells were placed in culture under microanaerobic conditions, i.e. in a culture medium which has not been degassed but which is closed and has no contact with oxygen. The bacteria were cultured at laboratory temperature (approximately 25° C.) in a liquid culture in a slighly modified MSGM medium (medium ATCC 1653), the makeup of which is described hereinafter.
For a volume of one liter, the culture medium contains 0.68 g of monobasic potassium phosphate, 0.85 g of sodium succinate, 0.57 g of sodium tartrate, 0.083 g of sodium acetate, 225 μl of resazurin at 0.2%, 0.17 g of sodium nitrate, 0.04 g of L-ascorbic acid, 2 ml of a 10 mM iron quinate solution, 10 ml of a Woolf vitamin solution and 5 ml of a Woolf mineral solution.
(§2) In order to prepare the culture medium containing the various iron-chelating agents, said agents were introduced at various concentrations into the culture medium described above (section 1.2).
(§3) In this example, the magnetotactic bacteria were cultured in the presence of various chelating agents and harvested after 7 days. The absorption and the iron oxide concentration of the magnetosome chains extracted from the bacteria were then measured.

[2] = test system: Magnetotactic bacteria of the Magnetospirillum magneticum species, strain AMB-1; assay: Magnetosome production after 7 days of culture (iron oxide concentration of extracted magnetosome chains, absorption at 480 nm)
Method: as §1, §2
The cells were harvested during the stationary phase.
The cells are harvested during the stationary phase by centrifugation at 4000 g for 20 minutes. The supernatant is removed and the cells are resuspended in 3 ml of deionized water.
To extract the magnetosome chains, 1 ml of cell suspension obtained as described above is again centrifuged and then resuspended in a 10 mM Tris-HCl buffer at pH 7.4, and then the cell suspension is subjected to a sonication step for 120 minutes at a power of 30 W, in order to lyze the cells and to release the magnetosome chains. Sonication periods of 60 and 180 minutes can also be used. For a sonication period of less than 60 minutes, the bacteria are not all lyzed. For a sonication period of greater than 180 minutes, the beginnings of aggregation are observed owing to the presence of individual magnetosomes which are aggregated.
After sonication, the magnetosome chain suspension is separated by placing a powerful neodynium magnet (0.1-1 T) in proximity to the tube, and the magnetic material is then recovered in the form of a pellet.
The maghemite concentration of a suspension of magnetosome chains extracted from magnetotactic bacteria was measured using the measurement of the absorption at 480 nm of this suspension. The method of calibration between the value of the absorption and the amount of maghemite is described elsewhere (PCT/EP2010/067765). These measurements were carried out in order to determine the amount of magnetosome chains produced by the magnetotactic bacteria after a given growth time. The amounts of magnetosome chains produced in the absence and in the presence of the chelating agents were then compared.
as §3

[3] = test system: Magnetospirillum magneticum; assay: Growth over time of magnetotactic bacteria in 10 ml tubes with chelating agent (absorbance, O.D. at 565 nm, D2-D9); settings: for effect on cell growth at high concentration: 400 μM; for effect on the growth of the magnetotactic bacteria (absorbance compared with cultures without the agent): 0.4-400 μM, D2 to D9, 10 ml tubes; for growth curves (fitted absorption, first 7 days) relative to bacteria cultured in the absence of the agent: all concentrations except 400 μM; for period of culture during which the effects are greatest: exponential growth phase; for multiplication of the bacteria during the first 4 days: first 4 days of growth
Method: Cultures of Magnetospirillum magneticum were prepared as described in example 1. The bacteria were cultured in 10 milliliter tubes. A volume of 100 microliters of culture medium was inoculated, at time “D0” (Day 0), with 0.1×10^6 bacterial cells. The cultures in suspension were placed at ambient temperature (approximately 25° C.) and the growth of the bacteria over time was monitored by measuring O.D. at the wavelength of 565 nanometers.
The following series of culture samples were prepared: • samples of control culture, comprising the bacterial cells in the culture medium free of chelating agent; • a series of culture samples containing the chelating agent rhodamine B, at increasing concentrations of 0.4 μM, 4 μM, 40 μm and 400 μM; • a series of culture samples containing the chelating agent ascorbic acid, at increasing concentrations of 0.4 μM, 4 μM, 40 μM and 400 μM; • a series of culture samples containing the chelating agent erythrosine, at increasing concentrations of 0.4 μM, 40 μM and 400 μM; • a series of culture samples containing the chelating agent folic acid, at increasing concentrations of 0.4 μM, 4 μM, 40 μM and 400 μM;
(§4) The bacteria were cultured for 12 days in a tube and the absorbance over the whole of the spectrum ranging from 400 to 700 nanometers was measured, respectively, (i) on the second day (D2) after inoculation, (ii) on the third day (D3) after inoculation, (iii) on the fourth day (D4) after inoculation, (iv) on the seventh day (D7) after inoculation, (v) on the eighth day (D8) after inoculation and (vi) on the ninth day (D9) after inoculation. The magnetic moments of various suspensions of magnetotactic bacteria deposited on blotting paper were measured on days D7, D8 and D9.

[4] = test system: Magnetospirillum magneticum; assay: Magnetic moment of suspensions of magnetotactic bacteria (SQUID, 500 Oe or 1000 Oe) on D7, D8, D9
Method: The magnetic moment of various suspensions of magnetotactic bacteria deposited on blotting paper, under the application of a magnetic field of 500 Oe or of 1000 Oe, was also measured. The magnetic moment was measured for 10 ml of suspension of magnetotactic bacteria harvested at various days of growth, centrifuged, and then resuspended in 100 μl of distilled water. These 100 μl containing the magnetotactic bacteria are then redeposited on nonmagnetic absorbent paper which itself is inserted into a capsule that is placed in the magnetometer in order to carry out the magnetic measurements. […]
Cultures of Magnetospirillum magneticum were prepared as described in example 1. […] The cultures in suspension were placed at ambient temperature (approximately 25° C.) and the growth of the bacteria over time was monitored by measuring O.D. at the wavelength of 565 nanometers.
as §4, with “The magnetic moments of various suspensions of magnetotactic bacteria deposited on blotting paper were measured on days D7, D8 and D9.” left out

Row | Compound | absorption measured at 565 nm of bacterial suspension compared with bacteria cultured in the absence of chelating agent ([1]; chelating agent 4 μM) | absorption measured at 565 nm of bacterial suspension compared with bacteria cultured in the absence of chelating agent ([1]; chelating agent 40 μM) | magnetosome production (iron oxide concentration) compared with the control bacteria ([2]; chelating agent 0.4 μM) | absorption measured at 565 nm of bacterial suspension compared with bacteria cultured in the absence of chelating agent ([1]; chelating agent 0.4 μM) | magnetosome production (iron oxide concentration) compared with the control bacteria ([2]; chelating agent 4 μM) | magnetosome production (iron oxide concentration) compared with the control bacteria ([2]; chelating agent 40 μM) | further results
1 | O=S(=O)(O)CCCN1CCOCC1 [3-(N-morpholino)propanesulfonic acid] | greater | greater | increased | – | – | – | –
2 | O=S(=O)(O)CCCNC1CCCCC1 [3-[cyclohexylamino]-1-propanesulfonic acid] | greater | greater | increased | greater | increased | increased | –
3 | O=C(O)CN(CCN(CC(=O)O)CC(=O)O)CC(=O)O [EDTA, ethylenediaminetetraacetic acid] | greater | greater | increased | greater | increased | – | –
4 | NCCCC(O)(P(=O)(O)O)P(=O)(O)O [alendronate, reference compound] | – | – | increased | – | increased | increased | –
5 | Nc1ccccc1C(=O)O [anthranilic acid] | – | – | increased | greater | – | – | –
6 | O=C1O[C@H]([C@@H](O)CO)C(O)=C1O [ascorbic acid] | – | – | – | – | – | – | effect on bacterial growth compared with rhodamine B [3]: similar; effect on cell growth at high concentration [3]: rather unfavorable; effect on the growth of the magnetotactic bacteria (absorbance compared with cultures without the agent) [3]: stimulates the growth; concentration giving the most pronounced effect on growth ([3]; after 4 days of culture): 0.4 µM; growth curves (fitted absorption, first 7 days) relative to bacteria cultured in the absence of the agent [3]: above; period of culture during which the effects are greatest [3]: first four days; concentration range of stimulated magnetosome production compared with rhodamine B [4]: wider concentration range
7 | O=C(O)CN(CC(=O)O)Cc1cc2c(cc1O)Oc1cc(O)c(CN(CC(=O)O)CC(=O)O)cc1C21OC(=O)c2ccccc21 [calcein] | greater | greater | – | – | increased | increased | –
8 | O=C(O)CC(O)(CC(=O)O)C(=O)O [citric acid] | greater | greater | – | – | increased | increased | –
9 | O=C1OC2(c3ccccc31)c1cc(I)c(O)c(I)c1Oc1c2cc(I)c(O)c1I [erythrosine] | – | – | – | – | – | – | absorption compared with control bacteria on day D4 ([3]; 0.4 μM): greater; absorption compared with control bacteria on day D4 ([3]; 4 μM): greater; effect on the growth of the magnetotactic bacteria (absorbance compared with cultures without the agent) [3]: stimulates the growth of the magnetotactic bacteria less than rhodamine B or ascorbic acid; absorption compared with control bacteria ([3]; the other days of culture and the other concentrations): either similar to or lower
10 | Nc1nc2ncc(CNc3ccc(C(=O)N[C@@H](CCC(=O)O)C(=O)O)cc3)nc2c(=O)[nH]1 [folic acid] | – | – | – | – | – | – | multiplication of the bacteria during the first 4 days ([3]; 0.4 μM): multiply in greater number; growth of the bacteria during the first two days ([3]; 4 μM, first two days of growth): grow more rapidly; multiplication of the bacteria during the first 4 days ([3]; 40 μM): multiply in greater number; effect on the growth of the magnetotactic bacteria (absorbance compared with cultures without the agent) [3]: stimulates the growth
11 | NCCCCCC(O)(P(=O)(O)O)P(=O)(O)O [neridronate, reference compound] | – | greater | – | – | – | – | –
12 | NC(=O)c1cccnc1 [nicotinamide] | – | greater | – | – | – | – | absorption relative to that of the control bacteria ([1]; chelating agent 40 μM): 1.5-2 times
13 | CCN(CC)c1ccc2c(-c3ccccc3C(=O)O)c3ccc(=[N+](CC)CC)cc-3oc2c1 [rhodamine B] | greater | greater | increased | greater | increased | increased | effect on cell growth at high concentration [3]: rather unfavorable; effect on the growth of the magnetotactic bacteria (absorbance compared with cultures without the agent) [3]: stimulates the growth; growth curves (fitted absorption, first 7 days) relative to bacteria cultured in the absence of the agent [3]: above; period of culture during which the effects are greatest [3]: first six days
14 | dextran | – | greater | – | – | – | increased | –
15 | hemoglobin | greater | greater | increased | greater | increased | increased | factor of increase of iron oxide production ([2]; 0.4 μM in the culture medium): 7-8; factor of increase of iron oxide production ([2]; 4 μM in the culture medium): 7-8
